Holding throughout (assay): NCI anticancer screen, dose series, 48 h
In test [1] the test system is M14 melanoma.
Test [2] deals with SF-295 CNS.
For test [3], the system named is KM12 colon.
Test [4] has as its system TK-10 renal.
For test [5], the system named is M19-MEL melanoma.
Test [6] concerns K-562 leukemia.
Test [7] relates to ACHN renal.
The test system of test [8] is A549 NSCLC.
Test [9] relates to DMS 273 small cell lung.
The subject of test [10] is SK-MEL-28 melanoma.

The structures appear in SMILES notation.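 Values below derive from 48-hour exposures of cells grown in 96-well plates, with endpoints linearly interpolated between the two concentrations bracketing the appropriate inhibition level. The concentration for 50% growth inhibition is given as GI50. TGI denotes the concentration required for complete inhibition of growth.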

For the molecule `O=c1[nH]nc2ccccc2c1Cl`, the TGI in test [1] stood at 25.6 µM; in [2], 46.9 µM; in test [3] it was 26.6 µM; in [4], 33 µM; in [5], 20.1 µM; in test [6] it was 24.7 µM. The TGI in test [7] worked out at 30.8 µM; in test [8], 91.5 µM; in [9], 35.5 µM.

For the molecule `CN(C)CCNC(=O)c1ccc(C(=O)NCCN(C)C)c2nc3ccccc3cc12`, the TGI was 3.44 µM in [1]; 16.4 µM in test [2]; 4.14 µM in test [3]; 5.08 µM in test [4]; 2.35 µM in test [5]; > 30 µM in [6]. Further, the TGI came out at 8.58 µM in test [7], 3.89 µM in test [10], 13 µM in test [8] and 4.76 µM in [9].

`Nc1ccn(CCO)c(=O)n1`: the TGI in [1], in [2], in test [3], in test [4], in [5] and in test [6] was > 100 µM in each case. Besides, the TGI in test [7], in test [10], in test [8] and in test [9] was > 100 µM each time.

On to `CC(=O)Nc1ccc(/C=N\N2C(=O)c3ccccc3C2=O)cc1`, for which the TGI in test [1], in [2], in [3], in [4], in test [5] and in test [6] was > 100 µM in each case. For the same molecule, the TGI in test [7], in [10], in test [8] and in test [9] was > 100 µM in each case.

Regarding `OCC(O)C(OC1OC(CO)C(O)C(O)C1O)c1nn(-c2ccccc2)c2nc3cc(Cl)c(Cl)cc3cc12` (configuration not stated), the TGI in test [1], in test [2], in test [3], in test [4], in [5] and in test [6] was > 100 µM throughout. In addition, the TGI in test [7] and in [10] was > 100 µM each time.

As for `O=c1c2cccc3cccc(c4oc5c6cccc7cccc(c(=O)c5c14)c76)c32`, the TGI was 17.7 µM in test [1]; > 31.6 µM in test [2]; 21.2 µM in [3]; 17.5 µM in test [4]; 16.9 µM in test [5]; 16.3 µM in [7]. In addition, the TGI in test [10] was 17.7 µM; in test [8], 25.4 µM; in [9], 17.9 µM.

For the molecule `CCCCCCCCC(=O)N(C)C1C2CN3CCC(O2)C13` (configuration not stated), the TGI in test [1], in test [2], in test [3], in test [4], in [5] and in test [6] was > 100 µM throughout. Moreover, the TGI in [7], in [10], in test [8] and in test [9] was > 100 µM throughout.

On to `O=C1/C(=C/c2ccc3c(c2)OCO3)CCC1CN1CCOCC1` (configuration not stated), for which the TGI in test [1] was determined as 15.3 µM; in test [2] it was 33.7 µM; in [3], 11 µM; in [4], 21.6 µM; in [5], 10 µM; in test [6], 8.42 µM. Besides, the TGI was 24 µM in test [7], 10.4 µM in [10], 43.3 µM in test [8] and 25.3 µM in test [9].

Regarding `N#C/C(=C1\NN=C(N)C(c2ccc(Cl)cc2)=C1O)c1ccc(Cl)cc1`, the TGI in test [1], in test [2], in test [3], in [4], in test [5] and in test [6] was > 100 µM throughout. Further, the TGI in [7], in test [10], in test [8] and in [9] was > 100 µM each time.

For the molecule `Cc1cc(C)c2c(c1)Nc1ccccc1P2c1ccccc1` (configuration not stated), the TGI is > 100 µM in test [1]; 56.3 µM in test [2]; > 100 µM in test [4]; > 100 µM in [6]; > 100 µM in [10]; > 100 µM in test [8]. Moreover, the TGI in [9] is 50.7 µM.

Consider `COc1ccc(C2=NN(C(=O)COc3ccc(Cl)cc3)C(O)(c3ccc(Cl)cc3)C2)cc1` (configuration not stated), for which the TGI in test [1], in test [2], in test [3], in test [4], in [6] and in test [7] was > 100 µM throughout. Moreover, the TGI in test [10], in test [8] and in test [9] was > 100 µM in each case.

Consider `CCOC(=O)C1=C(NNC(=O)Cc2ccccc2)CSC1=Nc1ccccc1`, for which the TGI in [1], in test [2], in [3], in test [4], in test [5] and in test [6] was > 100 µM in each case. Moreover, the TGI in test [7], in test [10], in [8] and in test [9] was > 100 µM in each case.

For the molecule `Fc1cccc2cc3ccc4cccc5ccc(c12)c3c45`, the TGI in [1], in test [2], in test [3], in test [4], in test [5] and in test [6] was > 100 µM each time. In addition, the TGI in [7], in [10], in test [8] and in [9] was > 100 µM throughout.

In the case of `Cc1cccc(NC(=O)c2cc3cc(N=Nc4ccccc4Cl)ccc3oc2=O)c1`, the TGI in [1] was 85.9 µM; in [2] it was > 100 µM; in test [3] it was 48.4 µM; in test [4], 86.2 µM; in test [5], > 100 µM; in [6], > 100 µM. In addition, the TGI in [7], in [10], in test [8] and in test [9] was > 100 µM each time.

Regarding `CC1CC2C(=O)N(c3ccccc3)C(=O)C2c2c1c1ccccc1n2Cc1ccccc1` (configuration not stated), the TGI in [1], in test [2], in test [3], in test [5], in test [6] and in test [7] was > 100 µM throughout. In addition, in [8], the TGI was > 100 µM.

Regarding `NNC(=O)CCC(=O)Nc1cc(Cl)c(Cl)cc1Cl`, the TGI in [1], in test [2], in [3], in test [4], in test [5] and in [6] was > 100 µM each time. For the same molecule, the TGI in test [7], in test [10], in test [8] and in test [9] was > 100 µM in each case.

`NC1=C(Br)C(=O)c2ncccc2C1=O`: the TGI in test [1] was 2.03 µM; in test [2] it was 1.41 µM; in [3] it was 2.7 µM; in test [4], 5.81 µM; in test [5], 0.298 µM; in test [6], 1.01 µM. The TGI in test [7] was determined as 1.62 µM; in test [10], 1.25 µM; in [8] it was 2.68 µM; in test [9], 1.44 µM.

Consider `C/C([O-])=C1\Cc2ccccc2C1=O.C/C([O-])=C1\Cc2ccccc2C1=O.CC[O-].CC[O-].[Ti+4]`, for which the GI50 in [1] was 16.8 µM; in [2], 14.5 µM; in test [3] it was 17.3 µM; in [4], 32.2 µM; in test [5] it was 16.8 µM; in [6], 20.3 µM. Further, the GI50 in [7] is 19.1 µM; in test [10] it was 17.7 µM; in test [8], 28.5 µM; in test [9] it was 8.38 µM. Moreover, the TGI in test [1] was 42.3 µM; in [2], 32 µM; in [3], 46.1 µM; in [4] it was > 100 µM; in test [5], 34.8 µM; in test [6], > 78.6 µM. Further, the TGI in test [7] is > 92.2 µM; in test [10], 38.1 µM; in [8] it was > 100 µM; in [9], 31.4 µM.

Take `COCC1N=C(c2cc(OC)c(OC)c(OC)c2-c2cc3c(cc2C2OCCCO2)OCO3)O[C@H]1c1ccccc1` (some centres not stated): the TGI in test [1], in test [2], in test [3], in [4], in [5] and in test [6] was > 100 µM each time. Moreover, the TGI in test [7], in [10], in test [8] and in test [9] was > 100 µM each time.

Regarding `O=C(O)CCSCCCN1C(=O)c2ccccc2C1=O`, the TGI in test [2], in test [3], in test [4], in test [5], in [6] and in test [7] was > 100 µM each time. Further, the TGI in [10] and in test [8] was > 100 µM each time.

In the case of `CCc1ccccc1N1CCN(C(=O)c2cc(OC)c(OC)c(OC)c2)CC1`, the TGI in test [1] is 2.6 µM; in test [2], 0.0341 µM; in [3], 2.64 µM; in test [4], > 93.3 µM; in test [5], > 100 µM; in test [6], 39.4 µM. Besides, the TGI is 66.4 µM in test [7], > 70.2 µM in test [10], 72.4 µM in test [8] and > 100 µM in test [9].

For the molecule `O=C(/C=C/c1ccc(Cl)c(Cl)c1)c1ccc(F)cc1`, the TGI was found to be 30.5 µM in test [1]; 41.6 µM in test [2]; 21.9 µM in test [3]; 94.7 µM in test [4]; 32.5 µM in test [5]; 18.7 µM in test [6]. Also, the TGI in test [7] was 31.6 µM; in test [10], 39.5 µM; in test [8], > 100 µM; in [9], 26.9 µM.

Consider `COC(=O)C1C2C=CC(C2)C1(C(=O)OC)S(=O)CC12CCC(CC1O)C2(C)C` (configuration not stated), for which the TGI in test [1], in test [2], in test [3], in test [4], in [5] and in test [6] was > 100 µM each time. Moreover, the TGI in test [7], in test [10], in test [8] and in test [9] was > 100 µM in each case.

For `COc1ccc(C(Cc2cc(OC)c(OC)c(OC)c2)C(=O)O)cc1` (configuration not stated), the TGI in [1] was > 100 µM; in test [2], 84.8 µM; in [3], > 100 µM; in [4], > 100 µM; in test [5], > 100 µM; in test [6], > 100 µM. Besides, the TGI in test [7], in test [10], in [8] and in [9] was > 100 µM each time.

With `CS(=O)(=O)OCCn1cnc2nc(NC(=O)c3ccccc3)[nH]c(=O)c21`, the TGI in test [1], in test [2], in test [3], in test [4], in test [5] and in test [6] was > 100 µM throughout. Moreover, the TGI in test [7], in test [10], in test [8] and in test [9] was > 100 µM throughout.

As for `Cc1ccc(S(=O)(=O)NNC(=O)c2sc(-c3nc(C)c(C(=O)NNS(=O)(=O)c4ccc(C)cc4)s3)nc2C)cc1`, the TGI in test [1], in [2], in test [3], in test [4], in [5] and in test [6] was > 100 µM each time. The TGI in [7], in test [10] and in test [8] was > 100 µM in each case.

For `Cn1ccnc1C(=O)/C=C/c1ccc(CC(=O)Nc2ccc(S(F)(F)(F)(F)F)cc2)cc1`, the GI50 in test [1] was 3.16 µM; in [2], 2.16 µM; in [3], 2.04 µM; in test [4], 4.05 µM; in test [6], 0.549 µM; in test [7], 2.45 µM. In addition, the GI50 in [10] was 2.83 µM; in [8], 3.32 µM. Moreover, the TGI in [1] amounted to 6.55 µM; in test [2] it was 4.73 µM; in test [3] it was 4.7 µM; in [4], 9.5 µM; in test [6] it was 16.7 µM; in test [7] it was 4.82 µM. Besides, the TGI in [10] worked out at 5.88 µM; in [8] it was 9.15 µM.

The values are drawn from PubChem BioAssay (NCI).
